Measurements taken from US9815796B2 (Merck Sharp & Dohme Corp., priority 2013, dated 2017).
Read-outs that look alike come from different tables or passages of the source.

Columns and labels:
Rhesus PDE2A3 = Rhesus PDE2A3 (Macaca mulatta, UniProt B3VTJ2); assay: PDE2 fluorescence polarization (IMAP FP) inhibition assay, rhesus enzyme; type: biochemical, rhesus macaque
How it was run: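 IMAP FP (mP from parallel and perpendicular fluorescence against substrate-only control) was read ≥1 h after adding binding reagent. The preceding 60 min room-temperature reaction contained FAM-cAMP (50 nM) and cGMP (1 uM) in pH 7.2 Tris buffer with MgCl2 and DTT. Enzyme was supernatant of sonicated AD293 cells expressing rhesus PDE2A3; compounds were 3-fold titrated, DMSO 1% final.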

human PDE2A1 = human PDE2A1 (Homo sapiens (Human), UniProt O00408); assay: IMAP FP PDE selectivity panel, human PDE2A1; type: biochemical
How it was run: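 IMAP FP format: substrate 50 nM FAM-cAMP plus 1000 nM cGMP, enzyme (insect-cell GST-tagged human PDE2A1) at ~20% conversion, 60 min reaction at room temperature. Apparent inhibition constants calculated from parallel/perpendicular fluorescence with KM 10,000 nM.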

[1] = Rhesus PDE2, Lab A, read-out: Rhesus PDE2 Ki (nM) - Lab A
[2] = Rhesus PDE2, Lab B, read-out: Rhesus PDE2 Ki (nM) - Lab B
[3] = Human PDE2, Lab A, read-out: Human PDE2 Ki (nM) - Lab A
[4] = Human PDE2, Lab B, read-out: Human PDE2 Ki (nM) - Lab B

Sequence of human PDE2A1 (O00408 other isoform, or with tags, fused parts or gaps): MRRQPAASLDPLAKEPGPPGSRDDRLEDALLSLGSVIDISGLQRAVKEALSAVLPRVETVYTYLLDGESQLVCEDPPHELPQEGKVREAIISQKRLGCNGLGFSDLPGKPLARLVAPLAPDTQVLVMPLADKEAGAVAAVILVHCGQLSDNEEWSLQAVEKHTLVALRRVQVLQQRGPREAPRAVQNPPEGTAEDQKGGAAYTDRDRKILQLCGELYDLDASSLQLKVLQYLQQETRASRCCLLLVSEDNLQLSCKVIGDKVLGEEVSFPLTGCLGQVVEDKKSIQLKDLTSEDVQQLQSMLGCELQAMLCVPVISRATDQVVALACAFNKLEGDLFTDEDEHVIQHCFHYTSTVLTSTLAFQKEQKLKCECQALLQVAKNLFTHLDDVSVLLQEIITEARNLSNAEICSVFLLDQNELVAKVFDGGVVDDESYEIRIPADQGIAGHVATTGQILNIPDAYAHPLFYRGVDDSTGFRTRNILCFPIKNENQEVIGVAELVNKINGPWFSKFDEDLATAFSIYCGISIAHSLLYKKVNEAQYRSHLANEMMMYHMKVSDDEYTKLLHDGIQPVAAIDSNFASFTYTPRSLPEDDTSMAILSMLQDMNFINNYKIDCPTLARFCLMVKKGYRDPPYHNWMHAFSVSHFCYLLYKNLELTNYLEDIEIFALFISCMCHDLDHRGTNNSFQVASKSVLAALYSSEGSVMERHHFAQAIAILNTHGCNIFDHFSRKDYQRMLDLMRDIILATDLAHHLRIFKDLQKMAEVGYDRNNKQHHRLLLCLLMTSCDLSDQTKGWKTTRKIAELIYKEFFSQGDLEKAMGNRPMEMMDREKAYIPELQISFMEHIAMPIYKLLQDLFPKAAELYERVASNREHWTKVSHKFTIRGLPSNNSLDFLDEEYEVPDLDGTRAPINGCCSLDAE
Sequence of Rhesus PDE2A3 (B3VTJ2 1-941): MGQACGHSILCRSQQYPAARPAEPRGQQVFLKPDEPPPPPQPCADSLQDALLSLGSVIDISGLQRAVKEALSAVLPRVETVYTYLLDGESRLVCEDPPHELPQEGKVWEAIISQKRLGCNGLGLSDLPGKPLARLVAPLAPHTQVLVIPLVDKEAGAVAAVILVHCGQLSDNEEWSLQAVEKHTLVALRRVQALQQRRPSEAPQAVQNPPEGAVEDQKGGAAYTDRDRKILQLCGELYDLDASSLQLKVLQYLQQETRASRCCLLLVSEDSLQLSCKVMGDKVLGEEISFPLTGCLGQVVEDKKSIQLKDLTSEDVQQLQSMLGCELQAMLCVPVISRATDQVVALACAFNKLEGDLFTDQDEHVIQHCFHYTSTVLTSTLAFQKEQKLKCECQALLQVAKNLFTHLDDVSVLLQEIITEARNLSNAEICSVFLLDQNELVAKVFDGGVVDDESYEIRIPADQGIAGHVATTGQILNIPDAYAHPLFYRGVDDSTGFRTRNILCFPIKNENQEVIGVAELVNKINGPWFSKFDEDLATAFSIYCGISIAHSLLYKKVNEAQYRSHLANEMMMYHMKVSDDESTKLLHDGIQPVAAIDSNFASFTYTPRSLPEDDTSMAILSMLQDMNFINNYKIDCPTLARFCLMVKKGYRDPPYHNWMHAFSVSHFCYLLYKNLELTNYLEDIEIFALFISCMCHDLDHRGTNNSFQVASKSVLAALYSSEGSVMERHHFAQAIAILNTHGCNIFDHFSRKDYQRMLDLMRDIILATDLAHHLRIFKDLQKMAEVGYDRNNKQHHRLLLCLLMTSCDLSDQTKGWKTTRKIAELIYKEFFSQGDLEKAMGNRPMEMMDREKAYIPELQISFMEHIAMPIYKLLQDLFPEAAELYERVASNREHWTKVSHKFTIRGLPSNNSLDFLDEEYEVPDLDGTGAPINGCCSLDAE

Ki (Rhesus PDE2A3; [1]) [nM]	Ki (Rhesus PDE2A3; [2]) [nM]	Ki (human PDE2A1; [3]) [nM]	Ki (human PDE2A1; [4]) [nM]	Structure (SMILES)
	6.7		4.8	CC(C)(C)[C@@H](NC(=O)c1cc(=O)[nH]c(-c2ncccn2)n1)c1ccc(C2CC2)c(F)c1 [Example 451, N-[(1R)-1-(4-cyclopropyl-3-fluorophenyl)-2,2-dimethylpropyl]-6-oxo-1,6-dihydro-2,2′-bipyrimidine-4-carboxamide]
2	3.4		3.5	CC(C)[C@@H](NC(=O)c1cc(=O)[nH]c(-c2ncccn2)n1)c1ccc(C(F)(F)F)c(F)c1 [Example 248, N-{(1R)-1-[3-fluoro-4-(trifluoromethyl)phenyl]-2-methylpropyl}-6-oxo-1,6-dihydro-2,2′-bipyrimidine-4-carboxamide]
58		24		C[C@@H](NC(=O)c1cc(=O)[nH]c(-c2ncccn2)n1)c1ccc(C(F)(F)F)cc1F [Example 99, N-[(1R)-1-[2-fluoro-4-(trifluoromethyl)phenyl]ethyl}-6-oxo-1,6-dihydro-2,2′-bipyrimidine-4-carboxamide]
41		32		Cc1nc(C(=O)N[C@H](C)c2ccc(C(F)(F)F)c(Cl)c2)cc(=O)[nH]1 [Example 47, N-{(1R)-1-[3-chloro-4-(trifluoromethyl)phenyl]ethyl}-2-methyl-6-oxo-1,6-dihydropyrimidine-4-carboxamide]
5.7		4.5		O=C(N[C@@H](c1ccc(C(F)(F)F)c(F)c1)C1CC1)c1cc(=O)[nH]c(-c2ccccc2)n1 [Example 174, N-{(R)-cyclopropyl[3-fluoro-4-(trifluoromethyl)phenyl]methyl}-6-oxo-2-phenyl-1,6-dihydropyrimidine-4-carboxamide]
117		28		COc1ccc2cc(C(C)NC(=O)c3cc(=O)[nH]c(-c4ncccn4)n3)ccc2c1 (stereo not drawn) [Example 84, N-[1-(6-methoxynaphthalen-2-yl)ethyl]-6-oxo-1,6-dihydro-2,2′-bipyrimidine-4-carboxamide]
			5.1	CC(C)[C@@H](NC(=O)c1cc(=O)[nH]c(-c2ncccn2)n1)c1ccc(C2CC2)c(F)c1 [Example 560, N-[(1R)-1-(4-cyclopropyl-3-fluorophenyl)-2-methylpropyl]-6-oxo-1,6-dihydro-2,2′-bipyrimidine-4-carboxamide]
			88	CC(C)(NC(=O)c1cc(=O)[nH]c(-c2ncccn2)n1)c1ccc(C(F)(F)F)cc1F [Example 573, N-{1-[2-fluoro-4-(trifluoromethyl)phenyl]-1-methylethyl}-6-oxo-1,6-dihydro-2,2′-bipyrimidine-4-carboxamide]
			7.7	CC(C)(C)[C@@H](NC(=O)c1cc(=O)[nH]c(-c2ncccn2)n1)c1ccc(C(F)(F)F)c(F)c1 [Example 556, N-{(1R)-1-[3-fluoro-4-(trifluoromethyl)phenyl]-2,2-dimethylpropyl}-6-oxo-1,6-dihydro-2,2′-bipyrimidine-4-carboxamide]
			37	O=C(NC1(c2ccc(C(F)(F)F)cc2F)CC1)c1cc(=O)[nH]c(-c2ncccn2)n1 [Example 579, N-{1-[2-fluoro-4-(trifluoromethyl)phenyl]cyclopropyl}-6-oxo-1,6-dihydro-2,2′-bipyrimidine-4-carboxamide]
			303	CC(C)(NC(=O)c1cc(=O)[nH]c(-c2ncccn2)n1)c1ccc2c(c1)OC(F)(F)O2 [Example 588, N-[1-(2,2-difluoro-1,3-benzodioxol-5-yl)-1-methylethyl]-6-oxo-1,6-dihydro-2,2′-bipyrimidine-4-carboxamide]
			63	CC(NC(=O)c1cc(=O)[nH]c(-c2ncccn2)n1)c1ccc(C2(C(F)(F)F)CC2)cc1 (single isomer, unassigned) [Example 693, (R)- or (S)-6-oxo-2-(pyrimidin-2-yl)-N-(1-(4-(1-(trifluoromethyl)cyclopropyl)phenyl)-ethyl)-1,6-dihydropyrimidine-4-carboxamide]

More lines, now with the values behind:

Structure (SMILES)	Ki (Rhesus PDE2A3; [1]) [nM]	Ki (Rhesus PDE2A3; [2]) [nM]	Ki (human PDE2A1; [3]) [nM]	Ki (human PDE2A1; [4]) [nM]
Cc1nc(C(=O)N[C@H](C)c2ccc(OC(F)(F)F)c(F)c2)cc(=O)[nH]1 [Example 22, N-{(1R)-1-[3-fluoro-4-(trifluoromethoxy)phenyl]ethyl}-2-methyl-6-oxo-1,6-dihydropyrimidine-4-carboxamide]	13	14	8.6	14
O=C(NC1(c2ccc(C(F)(F)F)cc2)CC1)c1cc(=O)[nH]c(C2CC2)n1 [Example 292, 2-cyclopropyl-6-oxo-N-{1-[4-(trifluoromethyl)phenyl]cyclopropyl}-1,6-dihydropyrimidine-4-carboxamide]	14		12	
O=C(N[C@@H](c1ccc(C(F)(F)F)cc1)C1CC1)c1cc(=O)[nH]c(-c2ccccc2)n1 [Example 177, N-{(R)-cyclopropyl[4-(trifluoromethyl)phenyl]methyl}-6-oxo-2-phenyl-1,6-dihydropyrimidine-4-carboxamide]	3.8		3.1	
Cc1nc(C(=O)NC2(c3ccc(SC(F)(F)F)c(F)c3)CC2)cc(=O)[nH]1 [Example 261, N-(1-{3-fluoro-4-[(trifluoromethyl)sulfanyl]phenyl}cyclopropyl)-2-methyl-6-oxo-1,6-dihydropyrimidine-4-carboxamide]	18	37		33
Cc1nc(C(=O)N[C@@H](c2ccc(SC(F)(F)F)c(F)c2)C2CC2)cc(=O)[nH]1 [Example 55, N-[(R)-cyclopropyl{3-fluoro-4-[(trifluoromethyl)sulfanyl]phenyl}methyl]-2-methyl-6-oxo-1,6-dihydropyrimidine-4-carboxamide]	11		7.8	
COc1ccc(C(C)(C)c2nc(C(=O)N[C@@H](c3ccc(C(F)(F)F)cc3)C(C)C)cc(=O)[nH]2)cc1 [Example 493, 2-[1-(4-methoxyphenyl)-1-methylethyl]-N-{(1R)-2-methyl-1-[4-(trifluoromethyl)phenyl]propyl}-6-oxo-1,6-dihydropyrimidine-4-carboxamide]		77		62
COCc1nc(C(=O)N[C@@H](c2ccc(SC(F)(F)F)cc2)C(C)C)cc(=O)[nH]1 [Example 120, 2-(methoxymethyl)-N-[(1R)-2-methyl-1-{4-[(trifluoromethyl)sulfanyl]phenyl}propyl]-6-oxo-1,6-dihydropyrimidine-4-carboxamide]	8.7		4.2	
COc1ccc(Cc2nc(C(=O)N[C@@H](c3ccc(OC(F)(F)F)cc3)C(C)(C)C)cc(=O)[nH]2)cc1 [Example 467, N-{(1R)-2,2-dimethyl-1-[4-(trifluoromethoxy)phenyl]propyl}-2-(4-methoxybenzyl)-6-oxo-1,6-dihydropyrimidine-4-carboxamide]		0.62		0.49
O=C(N[C@@H](c1ccc(SC(F)(F)F)cc1)C1CC1)c1cc(=O)[nH]c(C2CC2)n1 [Example 214, 2-cyclopropyl-N-[(R)-cyclopropyl{4-[(trifluoromethyl)sulfanyl]phenyl}methyl]-6-oxo-1,6-dihydropyrimidine-4-carboxamide]	5		2.4	
O=C(N[C@@H](c1ccc(C2CC2)cc1)C1CC1)c1cc(=O)[nH]c(-c2ncccn2)n1 [Example 453, N-[(R)-cyclopropyl(4-cyclopropylphenyl)methyl]-6-oxo-1,6-dihydro-2,2′-bipyrimidine-4-carboxamide]		7.3		7.6
CC(C)(NC(=O)c1cc(=O)[nH]c(C2CC2)n1)c1ccc(SC(F)(F)F)c(F)c1 [Example 266, 2-cyclopropyl-N-(1-{3-fluoro-4-[(trifluoromethyl)sulfanyl]phenyl}-1-methylethyl)-6-oxo-1,6-dihydropyrimidine-4-carboxamide]	86		65	
Cc1nc(C(=O)NC(C)c2ccc(C(F)(F)F)cc2C)cc(=O)[nH]1 (stereo not drawn) [Example 25, 2-methyl-N-{1-[2-methyl-4-(trifluoromethyl)phenyl]ethyl}-6-oxo-1,6-dihydropyrimidine-4-carboxamide]	1140		663	
Cc1nc(C(=O)N[C@@H](c2ccc(S(F)(F)(F)(F)F)cc2)C(C)C)cc(=O)[nH]1 [Example 52, 2-methyl-N-{(1R)-2-methyl-1-[4-(pentafluoro-λ^6-sulfanyl)phenyl]propyl}-6-oxo-1,6-dihydropyrimidine-4-carboxamide]	5.1	6		6.4
CC1Cc2cc(C(C)NC(=O)c3cc(=O)[nH]c(-c4ccccc4)n3)ccc2O1 (stereo not drawn) [Example 379, N-[1-(2-methyl-2,3-dihydro-1-benzofuran-5-yl)ethyl]-6-oxo-2-phenyl-1,6-dihydropyrimidine-4-carboxamide]	69			114
Cc1nc(C(=O)N[C@](C)(CO)c2ccc(C(F)(F)F)cc2)cc(=O)[nH]1 [Example 636, N-{(1S)-2-hydroxy-1-methyl-1-[4-(trifluoromethyl)phenyl]ethyl}-2-methyl-6-oxo-1,6-dihydropyrimidine-4-carboxamide]				19
CC(C)(C)c1ccc(C2(NC(=O)c3cc(=O)[nH]c(-c4ncccn4)n3)CC2)cc1 [Example 575, N-[1-(4-tert-butylphenyl)cyclopropyl]-6-oxo-1,6-dihydro-2,2′-bipyrimidine-4-carboxamide]				65
CCC(C)(NC(=O)c1cc(=O)[nH]c(C)n1)c1ccc(C(F)(F)F)cc1 (single isomer, unassigned) [Example 668, (S)- or (R)-2-methyl-N-{1-methyl-1-[4-(trifluoromethyl)phenyl]propyl}-6-oxo-1,6-dihydropyrimidine-4-carboxamide]				67
